The first assay has as its system recombinant NL4-3 virus (Renilla luciferase in nef, Gag P373S). The experiment in a line: HIV Cell Culture Assay (luciferase reporter virus in MT-2 cells). It counts as cell-based. The settings on record: NL43. The method in brief: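 First, reporter virus was generated in 293T cells and titered on MT-2 cells. Next, MT-2 cells were infected in the presence of serial compound dilutions for 4-5 days. Finally, cells were lysed and luciferase activity was measured to quantify inhibition.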
The EC50 is the concentration needed to bring the measured effect to its halfway point. Consider `C=C(C)[C@@H]1CC[C@]2(C(=O)N[C@@H](C)C(=O)O)CC[C@]3(C)[C@H](CC[C@@H]4[C@@]5(C)CC=C(c6ccc(C(=O)O)cc6)C(C)(C)[C@@H]5CC[C@]43C)[C@@H]12` [Example 57, 4-((1R,3aS,5aR,5bR,7aR,11aS,11bR,13aR,13bR)-3a-((S)-1-carboxyethylcarbamoyl)-5a,5b,8,8,11a-pentamethyl-1-(prop-1-en-2-yl)-2,3,3a,4,5,5a,5b,6,7,7a,8,11,11a,11b,12,13,13a,13b-octadecahydro-1H-cyclopenta[a]chrysen-9-yl)benzoic acid], for which the EC50 came to 700 nM.

For the compound `C=C(C)[C@@H]1CC[C@]2(C(=O)N(C)CCc3ccccn3)CC[C@]3(C)[C@H](CC[C@@H]4[C@@]5(C)CC=C(c6ccc(C(=O)O)cc6)C(C)(C)[C@@H]5CC[C@]43C)[C@@H]12` [Example 24, 4-((1R,3aS,5aR,5bR,7aR,11aS,11bR,13aR,13bR)-5a,5b,8,8,11a-pentamethyl-3a-(methyl(2-(pyridin-2-yl)ethyl)carbamoyl)-1-(prop-1-en-2-yl)-2,3,3a,4,5,5a,5b,6,7,7a,8,11,11a,11b,12,13,13a,13b-octadecahydro-1H-cyclopenta[a]chrysen-9-yl)benzoic acid], the EC50 is 48 nM.

The same assay, now with this note: NL43, read-out: EC50 Group.
As to `C=C(C)[C@@H]1CC[C@]2(C(=O)NCCN(CC)CCCC(=O)O)CC[C@]3(C)[C@H](CC[C@@H]4[C@@]5(C)CC=C(c6ccc(C(=O)O)cc6)C(C)(C)[C@@H]5CC[C@]43C)[C@@H]12` [Example 103, 4-((1R,3aS,5aR,5bR,7aR,11aS,11bR,13aR,13bR)-3a-(2-((3-carboxypropyl)(ethyl)amino)ethylcarbamoyl)-5a,5b,8,8,11a-pentamethyl-1-(prop-1-en-2-yl)-2,3,3a,4,5,5a,5b,6,7,7a,8,11,11a,11b,12,13,13a,13b-octadecahydro-1H-cyclopenta[a]chrysen-9-yl)benzoic acid], the EC50 was under 100 nM.

With `C=C(C)[C@@H]1CC[C@]2(C(=O)NCCN3CCN(C(=O)OC(C)(C)C)CC3)CC[C@]3(C)[C@H](CC[C@@H]4[C@@]5(C)CC=C(c6ccc(C(=O)O)cc6)C(C)(C)[C@@H]5CC[C@]43C)[C@@H]12` [Example 37, 4-((1R,3aS,5aR,5bR,7aR,11aS,11bR,13aR,13bR)-3a-(2-(4-(tert-butoxycarbonyl)piperazin-1-yl)ethylcarbamoyl)-5a,5b,8,8,11a-pentamethyl-1-(prop-1-en-2-yl)-2,3,3a,4,5,5a,5b,6,7,7a,8,11,11a,11b,12,13,13a,13b-octadecahydro-1H-cyclopenta[a]chrysen-9-yl)benzoic acid], the EC50 is under 100 nM.

With `C=C(C)[C@@H]1CC[C@]2(C(=O)NCCN3CCS(=O)(=O)CC3)CC[C@]3(C)[C@H](CC[C@@H]4[C@@]5(C)CC=C(c6ccc(C(=O)O)c(F)c6)C(C)(C)[C@@H]5CC[C@]43C)[C@@H]12` [Example 116, 4-((1R,3aS,5aR,5bR,7aR,11aS,11bR,13aR,13bR)-3a-((2-(1,1-dioxido-4-thiomorpholinyl)ethyl)carbamoyl)-1-isopropenyl-5a,5b,8,8,11a-pentamethyl-2,3,3a,4,5,5a,5b,6,7,7a,8,11,11a,11b,12,13,13a,13b-octadecahydro-1H-cyclopenta[a]chrysen-9-yl)-2-fluorobenzoic acid], the EC50 was under 100 nM.

For the compound `C=C(C)[C@@H]1CC[C@]2(C(=O)NCCN(C)C)CC[C@]3(C)[C@H](CC[C@@H]4[C@@]5(C)CC=C(c6cc(F)c(C(=O)O)c(F)c6)C(C)(C)[C@@H]5CC[C@]43C)[C@@H]12` [Example 122, 4-((1R,3aS,5aR,5bR,7aR,11aS,11bR,13aR,13bR)-3a-(2-(dimethylamino)ethylcarbamoyl)-5a,5b,8,8,11a-pentamethyl-1-(prop-1-en-2-yl)-2,3,3a,4,5,5a,5b,6,7,7a,8,11,11a,11b,12,13,13a,13b-octadecahydro-1H-cyclopenta[a]chrysen-9-yl)-2,6-difluorobenzoic acid], the EC50 was under 100 nM.

As to `C=C(C)[C@@H]1CC[C@]2(C(=O)NCCCN3CCS(=O)(=O)CC3)CC[C@]3(C)[C@H](CC[C@@H]4[C@@]5(C)CC=C(c6cc(F)c(C(=O)O)c(F)c6)C(C)(C)[C@@H]5CC[C@]43C)[C@@H]12` [Example 123, 4-((1R,3aS,5aR,5bR,7aR,11aS,11bR,13aR,13bR)-3a-((3-(1,1-dioxido-4-thiomorpholinyl)propyl)carbamoyl)-1-isopropenyl-5a,5b,8,8,11a-pentamethyl-2,3,3a,4,5,5a,5b,6,7,7a,8,11,11a,11b,12,13,13a,13b-octadecahydro-1H-cyclopenta[a]chrysen-9-yl)-2,6-difluorobenzoic acid], the concentration for a half-maximal effect (EC50) is under 100 nM.

Consider `CC(C)[C@@H]1CC[C@]2(C(=O)NCCN(C)C)CC[C@]3(C)[C@H](CC[C@@H]4[C@@]5(C)CC[C@H](c6ccc(C(=O)O)cc6)C(C)(C)[C@@H]5CC[C@]43C)[C@@H]12` [Example 55, 4-((1S,3aS,5aR,5bR,7aS,9S,11aS,11bR,13aR,13bR)-3a-(2-(dimethylamino)ethylcarbamoyl)-1-isopropyl-5a,5b,8,8,11a-pentamethylicosahydro-1H-cyclopenta[a]chrysen-9-yl)benzoic acid], for which the EC50 is under 100 nM.

In the case of `C=C(C)[C@@H]1CC[C@]2(C(=O)NC3(c4ccccn4)CC3)CC[C@]3(C)[C@H](CC[C@@H]4[C@@]5(C)CC=C(c6ccc(C(=O)O)cc6)C(C)(C)[C@@H]5CC[C@]43C)[C@@H]12` [Example 5, 4-((1R,3aS,5aR,5bR,7aR,11aS,11bR,13aR,13bR)-5a,5b,8,8,11a-pentamethyl-1-(prop-1-en-2-yl)-3a-(1-(pyridin-2-yl)cyclopropylcarbamoyl)-2,3,3a,4,5,5a,5b,6,7,7a,8,11,11a,11b,12,13,13a,13b-octadecahydro-1H-cyclopenta[a]chrysen-9-yl)benzoic acid], the EC50 was under 100 nM.

As to `C=C(C)[C@@H]1CC[C@]2(C(=O)Nc3ncc(C)s3)CC[C@]3(C)[C@H](CC[C@@H]4[C@@]5(C)CC=C(c6ccc(C(=O)O)cc6)C(C)(C)[C@@H]5CC[C@]43C)[C@@H]12` [Example 48, 4-((1R,3aS,5aR,5bR,7aR,11aS,11bR,13aR,13bR)-5a,5b,8,8,11a-pentamethyl-3a-(5-methylthiazol-2-ylcarbamoyl)-1-(prop-1-en-2-yl)-2,3,3a,4,5,5a,5b,6,7,7a,8,11,11a,11b,12,13,13a,13b-octadecahydro-1H-cyclopenta[a]chrysen-9-yl)benzoic acid], the EC50 is under 100 nM.

In the case of `C=C(C)[C@@H]1CC[C@]2(C(=O)NCCN)CC[C@]3(C)[C@H](CC[C@@H]4[C@@]5(C)CC=C(c6ccc(C(=O)O)cc6)C(C)(C)[C@@H]5CC[C@]43C)[C@@H]12` [Example 125, 4-((1R,3aS,5aR,5bR,7aR,11aS,11bR,13aR,13bR)-3a-(2-aminoethylcarbamoyl)-5a,5b,8,8,11a-pentamethyl-1-(prop-1-en-2-yl)-2,3,3a,4,5,5a,5b,6,7,7a,8,11,11a,11b,12,13,13a,13b-octadecahydro-1H-cyclopenta[a]chrysen-9-yl)benzoic acid], the EC50 was under 100 nM.
